{"source": "patent EP4603107A1", "about": "“BIOORTHOGONAL, ANILINIUM BASED CLEAVABLE TETRAZINES” (University of Copenhagen, priority 2024, dated 2025)", "key": {"[1]": {"test": "Click kinetics, stopped-flow measurement of tetrazine ligation with equatorial TCO-PEG4", "details": "PBS (10mM), 37 °C, TCO 1 mM, tetrazine 100 µM, absorbance at 535 nm", "protocol": "Nine tetrazines of formula (I) (Table 1) were clicked with equatorial TCO-PEG4 (rel-(1R-4E-pR)-cyclooct-4-en-1-yl (2-(2-(2-(2-hydroxyethoxy)ethoxy)ethoxy)ethyl)carbamate).\nStopped-flow measurements were performed using an SX20-LED stopped-flow spectrophotometer (Applied Photophysics) equipped with a 535 nm LED (optical pathlength 10 mm, full width half-maximum 34 nm) to monitor the characteristic tetrazine visible light absorbance (520-540 nm).\nA stock solution of eqTCO-PEG4 in DMSO was prepared at an approximate concentration above 100 mM. The exact concentration was determined by absorbance titration with 3,6-di-2-pyridyl-1,2,4,5-tetrazine. Stock solutions of tetrazines in DMSO were prepared at a concentration of 10 mM. These initial stock solutions were diluted into PBS (10mM) before stopped-flow analysis to reach a final TCO concentration of 1 mM and a tetrazine concentration of 100 µM. The reagent syringes were loaded with solutions of the Tz and eqTCO-PEG4, and the instrument was primed. Subsequent data were collected in triplicate to sextuplicate for each tetrazine. Reactions were conducted at 37 °C and recorded automatically at the time of acquisition. Data sets were analyzed by fitting an exponential decay using Prism 6 (Graphpad) to calculate the observed pseudo-first-order rate constants that were converted into second-order rate constants by dividing with the concentration of the excess TCO compound. Table 1: second rate order constant (M-1s-1) for the ligation between nine tetrazines and equatorial TCO-PEG4 (rel-(1R-4E-pR)-cyclooct-4-en-1-yl (2-(2-(2-(2-hydroxyethoxy)ethoxy)ethoxy)ethyl)carbamate)."}, "[2]": {"test": "Chemical stability in PBS (HPLC)", "type": "physicochemical", "details": "HPLC at RT, 9:1 PBS/MeCN solution, 1.0-1.5 mM Tz, 254 nm; read-out: PBS stability t1/2", "protocol": "Ten tetrazines of formula (I) (Table 2) were tested in relation to chemical stability in PBS. The results are shown in Table 2 for the chemical half-life was measured by HPLC at RT, in 9:1 PBS/MeCN solution, using 1.0-1.5 mM Tz (a); based on average peak intensities of the corresponding Tz and the corresponding oxadiazoles (the degradation product), at 254 nm."}}}
{"molecule": "COc1cccc(-c2nnc(C[N+](C)(C)c3ccccc3)nn2)c1.[Br-]", "note": "[Compound 19, N-((6-(3-methoxyphenyl)-1,2,4,5-tetrazin-3-yl)methyl)-N,N-dimethylbenzenaminium bromide]", "values": [{"measurement": "second order rate constant", "setting": "[1]", "value": 790, "unit": "M⁻¹ s⁻¹"}, {"measurement": "half-life", "setting": "[2]", "value": "0.803 ± 0.00833", "unit": "h"}]}
{"molecule": "C[N+](C)(Cc1nnc(-c2ccc(F)cc2)nn1)c1ccccc1.[Br-]", "note": "[Compound 20, N-((6-(4-fluorophenyl)-1,2,4,5-tetrazin-3-yl)methyl)-N,N-dimethylbenzenaminium bromide]", "values": [{"measurement": "second order rate constant", "setting": "[1]", "value": 580, "unit": "M⁻¹ s⁻¹"}, {"measurement": "half-life", "setting": "[2]", "value": "0.797 ± 0.0583", "unit": "h"}]}
{"molecule": "C[N+](C)(Cc1nnc(-c2ccccc2)nn1)c1ccccc1.[Br-]", "note": "[Compound 21, N,N-dimethyl-N-((6-phenyl-1,2,4,5-tetrazin-3-yl)methyl)benzenaminium bromide]", "values": [{"measurement": "second order rate constant", "setting": "[1]", "value": 650, "unit": "M⁻¹ s⁻¹"}, {"measurement": "half-life", "setting": "[2]", "value": "0.9667 ± 0.00833", "unit": "h"}]}
{"molecule": "Cc1ccc(-c2nnc(C[N+](C)(C)c3ccccc3)nn2)cc1.[Br-]", "note": "[Compound 22, N,N-dimethyl-N-((6-(p-tolyl)-1,2,4,5-tetrazin-3-yl)methyl)benzenaminium bromide]", "values": [{"measurement": "second order rate constant", "setting": "[1]", "value": 480, "unit": "M⁻¹ s⁻¹"}, {"measurement": "half-life", "setting": "[2]", "value": "1.783 ± 0.0167", "unit": "h"}]}
{"molecule": "COc1ccc(-c2nnc(C[N+](C)(C)c3ccccc3)nn2)cc1.[Br-]", "note": "[Compound 23, N-((6-(4-methoxyphenyl)-1,2,4,5-tetrazin-3-yl)methyl)-N,N-dimethylbenzenaminium bromide]", "values": [{"measurement": "second order rate constant", "setting": "[1]", "value": 370, "unit": "M⁻¹ s⁻¹"}, {"measurement": "half-life", "setting": "[2]", "value": "2.58 ± 0.683", "unit": "h"}]}
{"molecule": "C[N+](C)(Cc1nnc(-c2ccc(O)cc2)nn1)c1ccccc1.[Br-]", "note": "[Compound 24, N-((6-(4-hydroxyphenyl)-1,2,4,5-tetrazin-3-yl)methyl)-N,N-dimethylbenzenaminium bromide]", "values": [{"measurement": "half-life", "setting": "[2]", "value": "4.95 ± 0.1", "unit": "h"}]}
{"molecule": "Cc1ccc([N+](C)(C)Cc2nnc(-c3ccccc3)nn2)cc1.[Br-]", "note": "[Compound 25, N,N,4-trimethyl-N-((6-phenyl-1,2,4,5-tetrazin-3-yl)methyl)benzenaminium bromide]", "values": [{"measurement": "second order rate constant", "setting": "[1]", "value": 620, "unit": "M⁻¹ s⁻¹"}, {"measurement": "half-life", "setting": "[2]", "value": "1.15 ± 0.1", "unit": "h"}]}
{"molecule": "COc1ccc([N+](C)(C)Cc2nnc(-c3ccccc3)nn2)cc1.[Br-]", "note": "[Compound 26, 4-methoxy-N,N-dimethyl-N-((6-phenyl-1,2,4,5-tetrazin-3-yl)methyl)benzenaminium bromide]", "values": [{"measurement": "second order rate constant", "setting": "[1]", "value": 670, "unit": "M⁻¹ s⁻¹"}, {"measurement": "half-life", "setting": "[2]", "value": "1.87 ± 0.357", "unit": "h"}]}
{"molecule": "C[N+](C)(Cc1nnc(-c2ccccc2)nn1)c1ccc(O)cc1.[Br-]", "note": "[Compound 27, 4-hydroxy-N,N-dimethyl-N-((6-phenyl-1,2,4,5-tetrazin-3-yl)methyl)benzenaminium bromide]", "values": [{"measurement": "second order rate constant", "setting": "[1]", "value": 620, "unit": "M⁻¹ s⁻¹"}, {"measurement": "half-life", "setting": "[2]", "value": "5.19 ± 1.15", "unit": "h"}]}
{"molecule": "COc1ccc(-c2nnc(C[N+](C)(C)c3ccc(OC)cc3)nn2)cc1.[Br-]", "note": "[Compound 29, 4-methoxy-N-((6-(4-methoxyphenyl)-1,2,4,5-tetrazin-3-yl)methyl)-N,N-dimethylbenzenaminium bromide]", "values": [{"measurement": "second order rate constant", "setting": "[1]", "value": 340, "unit": "M⁻¹ s⁻¹"}, {"measurement": "half-life", "setting": "[2]", "value": "9.365 ± 0.0125", "unit": "h"}]}
